Assay results as given in paper PMC6302903, “Protein and Chemical Determinants of BL-1249 Action and Selectivity for K2P Channels” (ACS Chemical Neuroscience, 2018).

Target: T1, K2P2.1(TREK-1) (Mus musculus, UniProt P97438)
T1 sequence (P97438 1-411 isoform P97438-2): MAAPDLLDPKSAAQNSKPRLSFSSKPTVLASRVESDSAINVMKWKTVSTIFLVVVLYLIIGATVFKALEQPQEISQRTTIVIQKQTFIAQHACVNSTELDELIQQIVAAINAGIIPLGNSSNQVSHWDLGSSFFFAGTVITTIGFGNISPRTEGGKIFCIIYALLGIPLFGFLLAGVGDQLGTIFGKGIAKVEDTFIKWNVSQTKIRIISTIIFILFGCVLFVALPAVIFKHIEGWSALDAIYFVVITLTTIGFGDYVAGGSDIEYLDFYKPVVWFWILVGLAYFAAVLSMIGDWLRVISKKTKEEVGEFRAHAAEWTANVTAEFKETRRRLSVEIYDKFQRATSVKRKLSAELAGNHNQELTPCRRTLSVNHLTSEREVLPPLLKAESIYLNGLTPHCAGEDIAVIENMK
Test: Inside-out patch clamp of K2P2.1(TREK-1) in HEK293 cells
Format: cell-based
Parameters: expressed in transfected cells
Settings: HEK293 inside-out patches, 150 mM K+[out]/150 mM Rb+[in], 1 μM
Text: Diverse types of physical and chemical stimuli activate K2P2.1(TREK-1) by stabilizing the C-type gate and switching the channel into a “leak” mode that is characterized by a loss of outward rectification of the potassium current.[6],[8] Accordingly, we used inside-out patch clamp experiments of K2P2.1(TREK-1) expressed in HEK293 cells to test whether BL-1249 acts on the C-type gate. […] Together with previous single point concentration studies showing the insensitivity of K2P2.1(TREK-1) W275S in mammalian cells,[40] our data provide definitive evidence that BL-1249 activates K2P2.1(TREK-1) by stimulating the C-type gate. Thus, this compound fits the mechanistic paradigm shared by varied types of activators including mechanical stretch, pH, lipids, and small molecules.[6],[8]
Mouse K2P2.1 was expressed from a previously described pIRES2-EGFP vector in HEK293T cells (ATCC CRL-1573). Cells at 70% confluence were transfected (in 35 mm diameter wells) using LipofectAMINE 2000 (Invitrogen) for 6 h and plated onto coverslips coated with Matrigel (BD Biosciences).
Voltage-dependent activation of K2P2.1 was recorded on excised patches in inside-out configuration (50 kHz sampling) in the absence and presence of 1 μM BL-1249. Pipette solution contained the following: 150 mM KCl, 3.6 mM CaCl2, 10 mM HEPES (pH 7.4 with KOH). […] Data were analyzed using Clampfit 9 and Origin 7.

- effect on outward rectification (C-type gate): clear loss of rectification
SMILES: c1ccc(-c2nnn[nH]2)c(Nc2cccc3c2CCCC3)c1 [BL-1249, (5,6,7,8-tetrahydro-naphthalen-1-yl)-[2-(1H-tetrazol-5-yl)-phenyl]-amine]
